The values below come from patent US9732093B2, “FLAP modulators” (JANSSEN PHARMACEUTICA NV, priority 2013, dated 2017).

Structures can show the parent of a compound that is named as a salt. Where two headings read alike, the source gives them in different places. Where only a bound is given, the exact number is not on record here.

The subject of assay [1] is leukotriene pathway in human whole blood. Nature of the assay: Human whole blood assay (LTB4 levels after A23187 stimulation). In kind it is cell-based. The protocol:
The ability of the compounds of the present invention to treat a FLAP-mediated disease and/or disorder, or associated symptoms or complications thereof, was determined using the following procedures. Binding assay data represent the average value obtained from two different assay plates, with samples run in duplicate on each plate. Human whole blood assay data represent a single replicate on an assay plate using whole blood from at least one healthy donor.
An in vitro cellular assay was performed using human whole blood collected in heparin-containing tubes, which was used to test the ability of compounds to modulate the leukotriene pathway in human whole blood. The blood was diluted 1:1 in RPMI medium, pre-incubated for 15 min at 37° Celsius with test compounds at various concentrations, and then stimulated with calcium ionophore, A23187 (7 μg/mL), for 30 min at 37° Celsius. The samples were then centrifuged and plasma was removed. The plasma was diluted in assay buffer and LTB4 levels were measured using a commercial kit (Enzo Life Sciences). The concentration of each compound that was required for half-maximal inhibition (modulation) of recombinant enzyme activity (IC50) was calculated by a 4-parameter equation using the program GraphPad Prism (GraphPad software).

Assay [2] concerns the target human FLAP (Homo sapiens (Human), UniProt P20292). Nature of the assay: FLAP binding assay (HTRF format). The essentials:
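Binding of compounds to FLAP read out as HTRF ratio. Values are the mean of two assay plates, each sample run in duplicate per plate.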
Background: In TR-FRET formats the signal depends on donor and acceptor labels being close together.

[3] abbreviates: blood diluted 1:1 in RPMI, 15 min pre-incubation, A23187 7 μg/mL for 30 min at 37° Celsius, plasma LTB4.
Where [4] appears, read: human whole blood diluted 1:1 in RPMI, A23187 stimulation, Table 6 (additional runs).
Where [5] appears, read: human FLAP wild type membranes, HTRF format, Table 6 (additional runs).

Sequence of human FLAP (P20292 whole entry): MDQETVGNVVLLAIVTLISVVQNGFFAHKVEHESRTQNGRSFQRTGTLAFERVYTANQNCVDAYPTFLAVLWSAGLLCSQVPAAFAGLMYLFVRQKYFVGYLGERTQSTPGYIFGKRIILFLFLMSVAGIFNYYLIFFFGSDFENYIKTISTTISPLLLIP

What is called IC50 is the point on the concentration scale where inhibition reaches its midpoint. A higher IC50 goes with weaker potency in that assay. “5-(4-Cyclobutyl-2-fluoro-3-methoxyphenyl)-1H-pyrrolo[2,3-b]pyridine [Intermediate I]”: the IC50 in assay [1] (setting [3]) and in assay [1] (setting [4]) was 1670 nM in each case.
As a reminder, the Ki is a dissociation constant, usually derived from enzyme kinetics or from competition with a known ligand. For “6-Cyclobutyl-2-fluoro-3-(5H-pyrrolo[2,3-b]pyrazin-2-yl)phenol [Example 176]”, the results for the IC50 in assay [1] (setting [3]) and in assay [1] (setting [4]) were 892 nM and 1300 nM, respectively. In addition, in assay [2] (setting [5]), the Ki is around 75 nM.
In turn, `Nc1cnc(-c2ccc(C3CCC3)c(OCC(O)Cn3c(=O)[nH]c4ccccc43)c2F)cn1` (racemic) [Example 311, racemic 1-{3-[3-(5-Aminopyrazin-2-yl)-6-cyclobutyl-2-fluorophenoxy]-2-hydroxypropyl}-1,3-dihydro-2H-benzimidazol-2-one] came in with an IC50 in assay [1] (setting [4]) of 266 nM.
`Nc1cnc(-c2ccc(C3CCC3)c(OCc3cccc(C(F)(F)F)c3)c2F)cn1` [Compound 2, 5-(4-Cyclobutyl-2-fluoro-3-{[3-(trifluoromethyl)benzyl]oxy}phenyl)pyrazin-2-amine] displayed an IC50 in assay [1] (setting [4]) of 895 nM. In assay [2] (setting [5]), this compound showed a Ki of 86.1 nM.
In assay [1] (setting [4]), `COc1cc(Oc2c(C3CCC3)ccc(-c3cnc(N)cn3)c2F)ncn1` [Example 97, 5-{4-Cyclobutyl-2-fluoro-3-[(6-methoxypyrimidin-4-yl)oxy]phenyl}pyrazin-2-amine] registered an IC50 of 126 nM.
Same read-out and setting: in the case of `Nc1cnc(-c2ccc(C3CCC3)c(Oc3cc(O)ncn3)c2F)cn1` [Example 98] it was 124 nM; in that of `Nc1cnc(-c2ccc(C3CCC3)c(Oc3ccnc(N)n3)c2F)cn1` [Example 130, 4-[3-(5-Aminopyrazin-2-yl)-6-cyclobutyl-2-fluorophenoxy]pyrimidin-2-amine], 21.4 nM.
For `Nc1cnc(-c2ccc(C3CCC3)c(Oc3cc(N)ncn3)c2F)cn1` [Example 136, 6-[3-(5-Aminopyrazin-2-yl)-6-cyclobutyl-2-fluorophenoxy]pyrimidin-4-amine], the midpoint of inhibition in assay [1] (setting [4]), the IC50, lay at 56.6 nM. In assay [2] (setting [5]), this compound yielded a Ki of 3.9 nM.
In assay [1] (setting [4]), `NC(=O)c1ccc(Oc2c(C3CCC3)ccc(-c3cnc(N)cn3)c2F)cc1` [Example 155, 4-[3-(5-Aminopyrazin-2-yl)-6-cyclobutyl-2-fluorophenoxy]benzamide] registered an IC50 of 128 nM.
In the case of `Fc1c(-c2cnc3[nH]ccc3n2)ccc(C2CCC2)c1OCc1ccccc1` [Example 178, 2-[3-(Benzyloxy)-4-cyclobutyl-2-fluorophenyl]-5H-pyrrolo[2.3-b]pyrazine], the IC50 in assay [1] (setting [4]) amounted to 771 nM. Further, the Ki in assay [2] (human FLAP-containing membranes, HTRF ligand 25 nM, 2 h, average of two plates, duplicates, read-out: FLAP Binding wild type HTRF Ki) was 354 nM.
For the compound `CC(C)(C)c1ccc(-c2cnc(N)nc2)c(F)c1Oc1ncccn1` [Example 207, 5-[4-tert-Butyl-2-fluoro-3-(pyrimidin-2-yloxy)phenyl]pyrimidin-2-amine], in assay [1] (setting [4]), it took 78 nM to reach half-maximal inhibition (IC50). Moreover, in assay [2] (setting [5]), the Ki was determined as 51.5 nM.
`CC(C)(C)c1ccc(-c2cnc(N)nc2)c(F)c1Oc1cc(N)ncn1` [Example 208, 5-{3-[(6-Aminopyrimidin-4-yl)oxy]-4-tert-butyl-2-fluorophenyl}pyrimidin-2-amine]: the IC50 in assay [1] (setting [4]) was found to be 160 nM.
In the case of `Fc1c(-c2cnc3c(c2)OCCN3)ccc(C2CCC2)c1Oc1ncccn1` [Example 225, 7-(4-Cyclobutyl-2-fluoro-3-(pyrimidin-2-yloxy)phenyl)-3,4-dihydro-2H-pyrido[3,2-b][1,4]oxazine], in assay [1] (setting [4]), it took 287 nM to reach half-maximal inhibition (IC50). Also, the Ki in assay [2] (setting [5]) was found to be 23.2 nM.
Compound `N#CCOc1c(C2CCC2)ccc(-c2cnc(N)cn2)c1F` [Example 276, [3-(5-Aminopyrazin-2-yl)-6-cyclobutyl-2-fluorophenoxy]acetonitrile] registered an IC50 in assay [1] (setting [4]) of 1860 nM.
The same measure, in the same setting: in the case of `Nc1cnc(-c2ccc(C3CCC3)c(Oc3cccnn3)c2F)cn1` [Example 277, 5-[4-Cyclobutyl-2-fluoro-3-(pyridazin-3-yloxy)phenyl]pyrazin-2-amine] it was 191 nM; in that of `Nc1cnc(-c2ccc(C3CC3)c(Oc3nccc(N)n3)c2F)cn1` [Example 279, 2-[3-(5-Aminopyrazin-2-yl)-6-cyclopropyl-2-fluorophenoxy]pyrimidin-4-amine], 114 nM.
The same measure, in the same setting: under `COC(=O)c1coc(COc2c(C3CCC3)ccc(-c3cnc(N)cn3)c2F)n1` [Example 281, Methyl 2-{[3-(5-aminopyrazin-2-yl)-6-cyclobutyl-2-fluorophenoxy]methyl}-1,3-oxazole-4-carboxylate trifluoroacetic acid salt] stands 453 nM; under `Nc1cnc(-c2ccc(C3CCC3)c(OCc3nc4ccccc4s3)c2F)cn1` [Example 283, 5-[3-(1,3-Benzothiazol-2-ylmethoxy)-4-cyclobutyl-2-fluorophenyl]pyrazin-2-amine trifluoroacetic acid salt], 538 nM.
In turn, `N#Cc1cccnc1COc1c(C2CCC2)ccc(-c2cnc(N)cn2)c1F` [Example 286, 2-{[3-(5-Aminopyrazin-2-yl)-6-cyclobutyl-2-fluorophenoxy]methyl)}pyridine-3-carbonitrile trifluoroacetic acid salt] showed an IC50 in assay [1] (setting [4]) of 1190 nM. Moreover, affinity in assay [2] (setting [5]) was put at a Ki of 81.7 nM.
`Cc1nc(COc2c(C3CCC3)ccc(-c3cnc(N)cn3)c2F)cs1` [Example 287, 5-{4-Cyclobutyl-2-fluoro-3-[(2-methyl-1,3-thiazol-4-yl)methoxy]phenyl}pyrazin-2-amine trifluoroacetic acid salt] yielded an IC50 in assay [1] (setting [4]) above 1000 nM. The same compound returned a Ki in assay [2] (setting [5]) of 17.6 nM.
Compound `Nc1cnc(-c2ccc(C3CCC3)c(OCCN3C(=O)c4ccccc4C3=O)c2F)cn1` [Example 293, 2-{2-[3-(5-Aminopyrazin-2-yl)-6-cyclobutyl-2-fluorophenoxy]ethyl}-1H-isoindole-1,3(2H)-dione] registered an IC50 in assay [1] (setting [4]) of 100 nM.
Still for that read-out and setting: under `Nc1cnc(-c2ccc(C3CCC3)c(OCCNc3cnccn3)c2F)cn1` [Example 295, 5-{4-Cyclobutyl-2-fluoro-3-[2-(pyrazin-2-ylamino)ethoxy]phenyl}pyrazin-2-amine trifluoroacetic acid salt] stands 188 nM; under `Nc1cnc(-c2ccc(C3CCC3)c(OCCNc3ncccn3)c2F)cn1` [Example 296, N-{2-[3-(5-Aminopyrazin-2-yl)-6-cyclobutyl-2-fluorophenoxy]ethyl}pyrimidin-2-amine trifluoroacetic acid salt], 283 nM; under `Nc1cnc(-c2ccc(C3CCC3)c(OCCNc3ccncn3)c2F)cn1` [Example 297, N-{2-[3-(5-Aminopyrazin-2-yl)-6-cyclobutyl-2-fluorophenoxy]ethyl}pyrimidin-4-amine], 212 nM.
The same measure, in the same setting: in the case of `Cc1ccc(-c2cnc(N)cn2)c(F)c1Oc1ncccn1` [Example 314, 5-[2-Fluoro-4-methyl-3-(pyrimidin-2-yloxy)phenyl]pyrazin-2-amine] it was above 10000 nM.
Compound `Nc1ncc(-c2ccc(C3CCCC3)c(Oc3ncccn3)c2F)cn1` [Example 334, 5-[4-Cyclopentyl-2-fluoro-3-(pyrimidin-2-yloxy)phenyl]pyrimidin-2-amine] had an IC50 in assay [1] (setting [4]) of 52.7 nM. Further, in assay [2] (setting [5]), affinity was put at a Ki of 4.6 nM.
Taken in the same sequence, the figures for `Nc1ccnc(Oc2c(C3CCCC3)ccc(-c3cnc(N)nc3)c2F)n1` [Example 335, 5-{3-[(4-Aminopyrimidin-2-yl)oxy]-4-cyclopentyl-2-fluorophenyl}pyrimidin-2-amine] were 36.9 nM and 3.6 nM.
On to `Nc1cnc(-c2ccc(C3CCCC3)c(Oc3nccc(N)n3)c2F)cn1` [Example 336, 2-[3-(5-Aminopyrazin-2-yl)-6-cyclopentyl-2-fluorophenoxy]pyrimidin-4-amine], for which the IC50 in assay [1] (setting [4]) is 23.8 nM. For the same compound, the affinity in assay [2] (setting [5]), expressed as Ki, was 3.9 nM.
The like results for `Nc1cnc(-c2ccc(C3CCCC3)c(Oc3ncccn3)c2F)cn1` [Example 337, 5-[4-Cyclopentyl-2-fluoro-3-(pyrimidin-2-yloxy)phenyl]pyrazin-2-amine] were, in that order, 162 nM and 14.8 nM.
Taken in the same sequence, the figures for `Nc1cnc(-c2ccc(C3CCC3)c(Oc3ccc(N)nn3)c2F)cn1` [Example 338, 6-[3-(5-Aminopyrazin-2-yl)-6-cyclobutyl-2-fluorophenoxy]pyridazin-3-amine] were 95.9 nM and 1.7 nM.
The like results for `Nc1cnc(-c2ccc(C3CCC3)c(OCc3ncccn3)c2F)cn1` [Example 339, 5-[4-Cyclobutyl-2-fluoro-3-(pyrimidin-2-ylmethoxy)phenyl]pyrazin-2-amine] were, in that order, 1640 nM and 108 nM.
`Nc1cnc(-c2ccc(C3CCC3)c(OCc3ccc(-c4cnc(N)nc4)cc3)c2F)cn1` [Example 341, 5-(4-{[3-(5-Aminopyrazin-2-yl)-6-cyclobutyl-2-fluorophenoxy]methyl}phenyl)pyrimidin-2-amine] registered an IC50 in assay [1] (setting [4]) of 124 nM. Further, in assay [2] (setting [5]), the affinity, expressed as Ki, was 22.6 nM.
Taken in the same sequence, the figures for `Nc1cnc(-c2ccc(C3CCC3)c(OCc3ccc(-c4ccc(C(F)(F)F)cc4)cc3)c2F)cn1` [Example 342, 5-(4-Cyclobutyl-2-fluor-3-{[4-(trifluoromethyl)biphenyl-4-yl]methoxy}phenyl)pyrazin-2-amine] were 26.3 nM and 8.1 nM.
Taken in the same sequence, the figures for `Nc1ncc(-c2ccc(C3CCCCC3)c(Oc3ncccn3)c2F)cn1` [Example 343, 5-[4-Cyclohexyl-2-fluoro-3-(pyrimidin-2-yloxy)phenyl]pyrimidin-2-amine] were 14.4 nM and 5.4 nM.
